This is an account of results in ChEMBL document CHEMBL1240417, “QSAR studies of bioactivities of 1-(azacyclyl)-3-arylsulfonyl-1H-pyrrolo[2,3-b]pyridines as 5-HT6 receptor ligands using physicochemical descriptors and MLR and ANN-modeling” (Eur J Med Chem, 2010).

Each structure is given as a SMILES string.

The assay addresses 5-hydroxytryptamine receptor 6 (Homo sapiens, UniProt P50406). In words: Binding affinity to 5HT6 receptor.

Sequence of 5-hydroxytryptamine receptor 6 (P50406 whole entry): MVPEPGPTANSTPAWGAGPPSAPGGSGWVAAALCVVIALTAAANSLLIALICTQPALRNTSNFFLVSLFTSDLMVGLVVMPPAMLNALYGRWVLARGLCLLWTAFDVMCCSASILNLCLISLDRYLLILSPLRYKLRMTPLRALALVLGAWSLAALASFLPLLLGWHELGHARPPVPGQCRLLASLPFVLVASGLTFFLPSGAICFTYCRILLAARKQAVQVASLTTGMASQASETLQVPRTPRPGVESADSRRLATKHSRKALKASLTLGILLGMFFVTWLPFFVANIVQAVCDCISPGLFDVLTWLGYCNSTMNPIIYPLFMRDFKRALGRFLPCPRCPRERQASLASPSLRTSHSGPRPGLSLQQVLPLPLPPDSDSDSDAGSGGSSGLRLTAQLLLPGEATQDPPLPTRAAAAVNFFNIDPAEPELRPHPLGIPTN

Regarding `O=S(=O)(c1cn(C2CCCNC2)c2ncccc12)c1c(Cl)nc2sccn12` (centres undefined), the inhibitory constant (Ki) is 0.708 nM.

The compound `CN1CCCC(n2cc(S(=O)(=O)c3c(Cl)nc4sccn34)c3cccnc32)C1` (centres undefined) had a Ki of 2 nM.

`CCN1CCCC(n2cc(S(=O)(=O)c3c(Cl)nc4sccn34)c3cccnc32)C1` (centres undefined): the inhibitory constant (Ki) was 0.708 nM. The compound `O=S(=O)(c1ccc(Cl)s1)c1cn(C2CCNC2)c2ncccc12` (centres undefined) gave a Ki of 1 nM. Compound `CC(C)N1CCCC(n2cc(S(=O)(=O)c3c(Cl)nc4sccn34)c3cccnc32)C1` (centres undefined) gave an inhibition constant (Ki) of 1.7 nM. Consider `O=S(=O)(c1cn(C2CCNC2)c2ncccc12)c1c(Cl)nc2sccn12` (centres undefined), for which the inhibition constant (Ki) was 1 nM.

Consider `CN1CCC(n2cc(S(=O)(=O)c3c(Cl)nc4sccn34)c3cccnc32)C1` (centres undefined), for which affinity was put at a Ki of 0.794 nM.

With `CCN1CCC(n2cc(S(=O)(=O)c3c(Cl)nc4sccn34)c3cccnc32)C1` (centres undefined), the Ki is 1.41 nM.

In turn, `CCN1CCCC(n2cc(S(=O)(=O)c3ccc(Cl)cc3)c3cccnc32)C1` (centres undefined) had an inhibition constant (Ki) of 33.1 nM.

By Ki is commonly meant a measure of affinity in units of concentration, obtained from inhibition or displacement. A low value points to tighter binding.
